In patent US20150297761A1, “PEPTIDIC STRUCTURES INCORPORATING AN AMINO ACID METAL COMPLEX AND APPLICATIONS IN MAGNETIC RESONANCE IMAGING” (THE GENERAL HOSPITAL CORPORATION, priority 2012, published 2015):
Read-outs that look alike come from different tables or passages of the source.

How the values were obtained:
[1] = literature (refs 37, 38), cited from earlier work
[2] = Ligand challenge, equilibrium constant Kcomp of MS-325 vs. L; assay type: physicochemical
Protocol: (§1) Equilibration of each solution was monitored by LC-MS. Relative distributions of [Gd(CyPic3A)(H2O)2]^− and CyPic3A were determined by integrating the corresponding absorbance traces at 280 nm. […] Kcomp values determined between [Gd(DTPA)(H2O)]^2− and various ligands were determined from conditional formation constants (Kcond)^4 values taken from the literature.^6-16 Direct comparisons were only made between Kcond values determined under identical conditions.

[3] = Ligand challenge, equilibrium constant Kcomp of [Gd(DTPA)(H2O)]2− vs. L; assay type: physicochemical; settings: obtained through ligand challenge
[4] = as above; assay type: physicochemical; settings: for Kcomp [Gd(DTPA)(H2O)]^2- vs. L pH 4 / Kcomp, [Gd(DTPA)(H2O)]^2- vs. L pH 7.4: calculated from literature thermodynamic data
Protocol: As a means of assessing thermodynamic stability relative to other Gd(III)-complexes, [Gd(CyPic3A)(H2O)2]^− was challenged with DTPA in pH 7.4 25 mM Tris buffer. […] From this information it was possible to deduce equilibrium constants (Kcomp) for the competition reaction described in Equation 5,^31 where L=DTPA and L′=challenging chelator.
as §1

[5] = Kinetic inertness: Zn(II) transmetallation in phosphate buffer, followed by 1/T1; assay type: physicochemical
From the text: Kinetic inertness was also taken into account in the evaluation of potential probes. In this regard, [Gd(CyPic3A)(H2O)2]^− was challenged with 1 equiv. [ZnPO4]^− as a slurry in pH 7.0 phosphate buffer at 310 K (see below). Several clinically utilized Gd(III) complexes have been benchmarked relative to one another in this manner.^37 As Gd(III) replaced by Zn(II) precipitates from the solution as GdPO4, the relaxation rate 1/T1 decreases. In this method, the time required to reach 80% of the initial 1/T1 value was utilized as an index of kinetic inertness.
Modified conditions of Muller and co-workers were used for this experiment.^11,12 Solutions containing 2.5 mM [Gd(CyPic3A)(H2O)2]^− and 2.5 mM Zn(OTf)2 were combined in pH 7.0 phosphate buffer (50 mM) and placed in an incubator shaker set to 310 K. Progress of the transchelation was monitored via the decrease in 1/T1 with time. Prior to measurement, aliquots were placed in small glass inserts and centrifuged to bring all insoluble material to the bottom so as not to interfere with the measurement.

[6] = Zn(II) challenge of the Gd(III) complex of L; literature (ref 11); cited from earlier work
[7] = buffer, pH 3
Protocol: For comparison, we also measured transchelation from the approved contrast agents [Gd(HP-DO3A)(H2O)] (ProHance, gadoteridol) and [Gd(DTPA)(H2O)]^2− (Magnevist, gadopentetate). […] We estimated half-times for these transchelations (time to 50% of the equilibrium value).
Stock solutions of MS-325-L and GdL1, Gd2L2 and Gd3L3 were prepared in 50 mM citrate buffer at pH 3.0. MS-325-L was added to solutions of the Gd complexes and incubated at 37° C. The final concentrations of the metal complexes were 0.1 mM, while the concentration of MS-325-L was adjusted according to the amounts of Gd complexes per metallopeptide present. A 10 μL aliquot was removed for HPLC analysis and analyzed while the remainder of the solution was incubated at 37° C.

[8] = hydration state; literature (superscript refs); cited from earlier work
[9] = cited from earlier work
[10] = Relaxivity of Gd(DOTAla) metallopeptides and reference agents (T1 inversion recovery, 37° C.); assay type: physicochemical
Protocol: Main numbers are given per Gd, numbers in parentheses are per molecule values. All numbers were determined at 37° C. using an inversion recovery sequence at concentrations ranging from 0.05 to 0.6 mM/Gd. Table 4 in Example 2 further expands the data of Table 1.
Per Gd relaxivities were determined by measuring T1 at 37° C. using 20, 60, 200, 400 and 500 MHz spectrometers. Relaxivities for MS-325 (with and without the presence of HSA) as a reference compound with a long τR and [Gd(HP-DO3A)(H2O)] as a reference for very short τR were also measured, and all the relaxivity data is tabulated in Table 4, together with results obtained from literature for the compounds with similar estimated τR. […] Additional rigidity through cyclization seems to provide only minor relaxivity increase for the dimeric and trimeric systems (Gd2C2 and Gd3C3).
Measurement of relaxivity. Longitudinal relaxation times T1, were measured on Bruker Minispecs mq20 (0.47 T) and mq60 (1.41 T), a Bruker Bioscan horizontal bore 4.7 T, 9.4 T and 11.7 T Varian NMR spectrometers. T1 was measured by using an inversion recovery method with 10 inversion time values ranging from 0.05×T1 to 5×T1. Relaxivity was calculated from a linear plot of 3 or 4 different concentrations (ranging from 0.01 to 0.5 mM, depending on amount of compound isolated) versus the corresponding inverse relaxation times. All samples were measured at 37° C. using either the internal temperature control of the instrument (0.47, 1.41, 9.4 and 11.7 T) or a warm air blower (4.7 T). MS-325/HSA was prepared in a 4.5% w/v solution of HSA (0.66 mM) in PBS. The MS-325 concentration (in presence of HSA) ranged from 0.05 to 0.15 mM.

[11] = Relaxometry of [Gd(CyPic3A)(H2O)2]− in different media; assay type: physicochemical
Protocol: The relaxivity of [Gd(CyPic3A)(H2O)2]^− is consistent with two inner-sphere water ligands. At 310 K in pH 7.4 50 mM HEPES buffer, r1=5.70 mM^−1 s^−1 at 1.41 T (7.53 mM^−1s^−1 at 298 K). This is 75% higher than [Gd(DTPA)(H2O)]^2− measured under these conditions (see below for detailed table of r1 values). To probe the effects of potentially coordinating anions, nwas measured in the presence of 20 equiv. carbonate or L-lactate and also in 25 mM phosphate buffer (pH 7.4).
Relaxivity measurements were performed on a Bruker mq60 or Bruker mq20 Minispec at 1.41 T and 0.47 T, respectively, and 37° C. Longitudinal (T1) relaxation was acquired via an inversion recovery experiment on 10 inversions of duration ranging between 0.05×T1 and 5×T1. Relaxivity (r1) was determined from the slope of a plot of 1/T1 vs. [Gd] for at least 4 concentrations of Gd(III). The transverse (T2) relaxation times of ^17O were acquired at 500 MHz using a CPMG pulse sequence at temperatures ranging from 278 to 368 K. Reduced relaxation rates (1/T2r) were calculated by dividing the [Gd(CyPic3A)(H2O)2]^− imparted increase in 1/T2 relative to neat H2O at pH 3 by the mole fraction of coordinated water molecules.

[12] = obtained through ligand challenge
[13] = calculated from literature thermodynamic data
[14] = 0.47 T, 310 K, literature (superscript refs)

## Gd(DO3A-N-α-aminopropionate) [F]
[1]; activation enthalpy of water exchange
  ΔH^‡: 4.57 kcal/mol
[1]; water exchange rate at 310 K
  ^310kex × 10^6 (s^−1): 42 × 10^6 s^−1
[1]; water residency time at 310 K (37° C.)
  ^310 TM (ns): 24 ns

## N-((6-methylpicol-2-yl)methyl)-N,N′,N′-triacetate-trans-1,2-diaminocyclohexane [CyPic3A]
[2]; [12]
  Kcomp MS-325 vs. L pH 4: 0.031
  Kcomp MS-325 vs. L pH 7.4: 0.56
[3]
  Kcomp [Gd(DTPA)(H2O)]^2- vs. L pH 4: 0.18
[4]; pH 7.4
  affinity for Gd(III) lower than DTPA: about 5 fold
[5]; Zn(II) challenge of the Gd(III) complex of L, this work
  Time to 80% r1: 95 min

## O=C(O)CN1CCNCCN(CC(=O)O)CCN(CC(=O)O)CC1 [DO3A]
[2]; [13]
  Kcomp MS-325 vs. L pH 4: 0.00046^5,6
  Kcomp MS-325 vs. L pH 7.4: 0.00017^5,6
[4]
  Kcomp [Gd(DTPA)(H2O)]^2- vs. L pH 4: 0.00048^5,6
[4]; pH 7.4
  Kcomp, [Gd(DTPA)(H2O)]^2- vs. L pH 7.4: 0.0005^5,6
[6]
  Time to 80% r1 (min): inert^11

## O=C(O)CN(CCN(CC(=O)O)C[C@H](COP(=O)(O)OC1CCC(c2ccccc2)(c2ccccc2)CC1)N(CC(=O)O)CC(=O)O)CC(=O)O
[2]; [13]
  Kcomp MS-325 vs. L pH 4: 1
  Kcomp MS-325 vs. L pH 7.4: 1
[4]
  Kcomp [Gd(DTPA)(H2O)]^2- vs. L pH 4: 0.57^5
[4]; pH 7.4
  Kcomp, [Gd(DTPA)(H2O)]^2- vs. L pH 7.4: 2.88^5
[6]
  Time to 80% r1 (min): 3800^11 min

## CC(O)CN1CCN(CC(=O)[O-])CCN(CC(=O)[O-])CCN(CC(=O)[O-])CC1.[Gd+3] (stereo not shown) [[Gd(HP-DO3A)(H2O)], gadoteridol, reference compound]
[7]
  t1/2 [h], Gd transchelation to MS-325: 91 ± 6 h
[8]
  q: 1^16
[9]; [14]
  r1 0.47 T 310K: 3.1^17 mM^−1s^−1
[9]; cell says 1.5 T, 310 K, literature (ref 17)
  r1 1.41 T 310K: 2.9 (1.5 T)^17 mM^−1s^−1
[10]; 20 MHz
  Relaxivity per Gd, 20 MHz: 4.3 mM⁻¹ s⁻¹
[10]; 60 MHz
  Relaxivity per Gd, 60 MHz: 3.2 mM⁻¹ s⁻¹
[10]; 200 MHz
  Relaxivity per Gd, 200 MHz: 3.6 mM⁻¹ s⁻¹
[10]; 400 MHz (9.4 T)
  Relaxivity per Gd, 400 MHz: 3.0 mM⁻¹ s⁻¹
[10]; 500 MHz
  Relaxivity per Gd, 500 MHz: 2.9 mM⁻¹ s⁻¹
[10]; per Gd, 0.47 T
  r1 [0.47 T], per Gd: 4.33 mM⁻¹ s⁻¹
[10]; per Gd, 1.4 T
  r1 [1.4 T], per Gd: 3.21 mM⁻¹ s⁻¹
[10]; per Gd, 9.4 T
  r1 [9.4 T], per Gd: 3.03 mM⁻¹ s⁻¹
[10]; per Gd, 11.7 T
  r1 [11.7 T], per Gd: 2.94 mM⁻¹ s⁻¹

## O=C([O-])CN(CCN(CC(=O)[O-])CC(=O)O)CCN(CC(=O)[O-])CC(=O)O.[Gd+3] [[Gd(DTPA)(H2O)]^2−, gadopentetate]
[7]
  t1/2 [h], Gd transchelation to MS-325: 0.42 ± 0.18 h
[8]
  q: 1^16
[9]; 0.47 T, 298 K, literature (superscript refs)
  r1 0.47 T 298K: 4.3^16 mM^−1s^−1
[9]; [14]
  r1 0.47 T 310K: 3.4^17 mM^−1s^−1
[11]
  r1 1.41 T 310K: 3.26 mM⁻¹ s⁻¹
[11]; 1.41 T, 310 K, pH 7.4 50 mM HEPES buffer
  r1: 3.26 mM⁻¹ s⁻¹
[5]; 1 equiv. Zn(II), pH 7.0 phosphate buffer, 310 K
  time to 80% of the initial 1/T1: 383 min

## CC(O)CN1CCN(CC(=O)O)CCN(CC(=O)O)CCN(CC(=O)O)CC1 (stereo not shown) [HP-DO3A]
[2]; [13]
  Kcomp MS-325 vs. L pH 4: 0.16^5,6
  Kcomp MS-325 vs. L pH 7.4: 0.07^5,6
[4]
  Kcomp [Gd(DTPA)(H2O)]^2- vs. L pH 4: 0.22^6
[4]; pH 7.4
  Kcomp, [Gd(DTPA)(H2O)]^2- vs. L pH 7.4: 0.19^6
[6]
  Time to 80% r1 (min): inert^11
